Broadly, the IC50 is the concentration at which inhibition is half-maximal. A word on the GI50: it is the concentration that inhibits growth by half.

These results are taken from US20230293535A1, “ERBB/BTK INHIBITORS” (Dizal (Jiangsu) Pharmaceutical Co., Ltd., priority 2018, published 2023).

Holding throughout (assay type): cell-based
In test [1] the target is T1, human EGFR exon 20 H773_V774insNPH (Homo sapiens, UniProt P00533, INS773NPH).
T1 construct: host or cells: Ba/F3
The test is described as follows: EGFR Exon20 NPH insertion cellular phosphorylation inhibition (MSD pEGFR Y1068/total EGFR).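 Also: IL3-independent Ba/F3 cells with constitutively phosphorylated EGFR, compound exposure at 37 °C under 5% CO2, electrochemiluminescent MSD measurement of the p-EGFR to total EGFR ratio.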 The following applies: Ba/F3 EGFR NPH ins cells, 4 h compound, p-EGFR(Y1068)/total EGFR.

Test [2] concerns the target T2, human EGFR exon 20 V769_D770insASV (Homo sapiens, UniProt P00533, INS769ASV).
T2 construct: expressed in transfected cells; host or cells: Ba/F3 (DSMZ ACC-300), lentiviral transduction, puromycin selection, IL3 depletion
The test is described as follows: EGFR Exon20 ASV insertion cellular phosphorylation inhibition (MSD pEGFR Y1068/total EGFR).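 Also: electrochemiluminescent readout on an MSD SECTOR Imager, IL3-independent transduced cells in medium with 1% FBS, compound concentration series at 37 °C and 5% CO2.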 Conditions: Ba/F3 EGFR ASV ins cells, 4 h compound, p-EGFR(Y1068)/total EGFR.

In test [3] the target is T3, EGFR L858R&T790M (Homo sapiens, UniProt P00533, L858R/T790M).
T3 construct: host or cells: NCI-H1975
T3 sequence (P00533 25-1210 T790M/L858R): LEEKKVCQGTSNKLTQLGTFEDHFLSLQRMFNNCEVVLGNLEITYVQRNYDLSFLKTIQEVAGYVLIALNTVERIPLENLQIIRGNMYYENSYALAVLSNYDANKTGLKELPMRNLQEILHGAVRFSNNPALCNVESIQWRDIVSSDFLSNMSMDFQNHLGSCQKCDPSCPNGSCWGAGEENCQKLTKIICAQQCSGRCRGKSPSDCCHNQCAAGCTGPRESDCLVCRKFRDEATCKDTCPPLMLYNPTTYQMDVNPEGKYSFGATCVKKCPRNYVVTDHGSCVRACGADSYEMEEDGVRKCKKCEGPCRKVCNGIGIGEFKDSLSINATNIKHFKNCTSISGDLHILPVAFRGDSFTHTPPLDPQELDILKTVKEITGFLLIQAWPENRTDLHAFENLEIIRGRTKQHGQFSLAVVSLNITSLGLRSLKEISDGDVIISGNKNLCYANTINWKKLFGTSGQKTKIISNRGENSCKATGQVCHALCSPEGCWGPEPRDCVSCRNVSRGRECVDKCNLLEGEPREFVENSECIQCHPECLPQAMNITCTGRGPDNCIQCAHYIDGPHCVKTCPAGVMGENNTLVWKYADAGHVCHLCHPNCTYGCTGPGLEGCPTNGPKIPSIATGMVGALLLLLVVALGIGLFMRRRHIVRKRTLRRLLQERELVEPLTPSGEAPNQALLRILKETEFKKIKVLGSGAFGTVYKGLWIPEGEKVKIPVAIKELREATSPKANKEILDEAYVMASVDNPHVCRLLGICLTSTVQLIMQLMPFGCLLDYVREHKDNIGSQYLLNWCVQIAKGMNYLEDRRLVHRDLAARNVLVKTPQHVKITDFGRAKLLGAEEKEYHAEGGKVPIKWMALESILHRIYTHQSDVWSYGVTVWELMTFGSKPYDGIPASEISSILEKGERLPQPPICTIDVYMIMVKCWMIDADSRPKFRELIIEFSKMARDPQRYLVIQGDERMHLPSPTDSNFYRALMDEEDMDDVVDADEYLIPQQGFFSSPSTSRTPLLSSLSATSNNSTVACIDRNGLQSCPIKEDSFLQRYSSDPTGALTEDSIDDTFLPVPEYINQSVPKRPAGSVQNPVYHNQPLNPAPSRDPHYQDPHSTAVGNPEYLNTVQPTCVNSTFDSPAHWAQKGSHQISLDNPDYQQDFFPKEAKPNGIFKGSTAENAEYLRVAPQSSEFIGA
The test is described as follows: EGFR L858R and T790M cellular phosphorylation inhibition in NCI-H1975 (MSD).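 Also: phosphorylated and total EGFR detected by electrochemiluminescence, cells exposed to compound in medium containing 1% FBS at 37 °C.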 Conditions: NCI-H1975 cells, 4 h compound, p-EGFR(Y1068)/total EGFR; read-out: EGFR L858R and T790M mutation IC50.

Test [4] addresses T4, human Her2 exon 20 insertion mutation YVMA (Homo sapiens, UniProt P04626, INS775YVMA).
T4 construct: expressed in transfected cells; host or cells: NIH-3T3, lentiviral transduction, puromycin selection
The test is described as follows: Her2 Exon 20 YVMA insertion cellular phosphorylation inhibition (MSD p-Her2 Y1248/total Her2).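 Also: lentivirally transduced NIH-3T3 cells in 1% FBS medium, electrochemiluminescent MSD read-out, graded compound concentrations at 37 °C.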 The following applies: Her2 YVMAins cells, 4 h compound.
Protocol: The resulting cell line expressed phosphorylated Her2 protein and its proliferation depended on the mutation gene, which could be used for in vitro PD and anti-proliferation assays.
One day before the test, WT or mutant cells were seeded in 96 well plates at appropriate concentrations with corresponding growth media supplemented with 1% FBS, and incubated overnight. The next day, tested compounds at a series of concentrations were added into each individual well of the plates, and the plates were incubated for 4 h at 37° C. with 5% CO2.
The EGFR (Y1068) phosphorylation level (activity) of cells in each well were then measured with MSD kit named “MULTI-SPOT®96 4-Spot HB Prototype EGFR Triplex [sequence]: pEGFR(Tyr1068),pEGFR(Tyr1173), Total EGFR” according to the manufacturer’s instruction (MESO SCALE DISCOVERY, Cat# N45ZB-1). The assay is an electrochemiluminescent method for determining both phosphorylated and total EGFR of cells with an MSD SECTOR® Imager and the ratio of p-EGFR/total EGFR can be generated by the machine. The Her2 (Y1248) phosphorylation level (activity) of cells in each well were measured with MSD Kit named “Phospho-ErbB2 (Tyr1248) Assay Whole Cell Lysate Kit” according to the manufacturer’s instruction (MESO SCALE DISCOVERY, Cat# K151CLD-3). The assay is an electrochemiluminescent method (MESO SCALE DISCOVERY) for determining both phosphorylated and total Her2 of cells with an MSD SECTOR® Imager and then the ratio of p-Her2/total Her2 can be generated by the machine.

For test [5], the target named is T5, WT EGFR (Homo sapiens, UniProt P00533).
T5 construct: host or cells: A-431
T5 sequence (P00533 25-1210): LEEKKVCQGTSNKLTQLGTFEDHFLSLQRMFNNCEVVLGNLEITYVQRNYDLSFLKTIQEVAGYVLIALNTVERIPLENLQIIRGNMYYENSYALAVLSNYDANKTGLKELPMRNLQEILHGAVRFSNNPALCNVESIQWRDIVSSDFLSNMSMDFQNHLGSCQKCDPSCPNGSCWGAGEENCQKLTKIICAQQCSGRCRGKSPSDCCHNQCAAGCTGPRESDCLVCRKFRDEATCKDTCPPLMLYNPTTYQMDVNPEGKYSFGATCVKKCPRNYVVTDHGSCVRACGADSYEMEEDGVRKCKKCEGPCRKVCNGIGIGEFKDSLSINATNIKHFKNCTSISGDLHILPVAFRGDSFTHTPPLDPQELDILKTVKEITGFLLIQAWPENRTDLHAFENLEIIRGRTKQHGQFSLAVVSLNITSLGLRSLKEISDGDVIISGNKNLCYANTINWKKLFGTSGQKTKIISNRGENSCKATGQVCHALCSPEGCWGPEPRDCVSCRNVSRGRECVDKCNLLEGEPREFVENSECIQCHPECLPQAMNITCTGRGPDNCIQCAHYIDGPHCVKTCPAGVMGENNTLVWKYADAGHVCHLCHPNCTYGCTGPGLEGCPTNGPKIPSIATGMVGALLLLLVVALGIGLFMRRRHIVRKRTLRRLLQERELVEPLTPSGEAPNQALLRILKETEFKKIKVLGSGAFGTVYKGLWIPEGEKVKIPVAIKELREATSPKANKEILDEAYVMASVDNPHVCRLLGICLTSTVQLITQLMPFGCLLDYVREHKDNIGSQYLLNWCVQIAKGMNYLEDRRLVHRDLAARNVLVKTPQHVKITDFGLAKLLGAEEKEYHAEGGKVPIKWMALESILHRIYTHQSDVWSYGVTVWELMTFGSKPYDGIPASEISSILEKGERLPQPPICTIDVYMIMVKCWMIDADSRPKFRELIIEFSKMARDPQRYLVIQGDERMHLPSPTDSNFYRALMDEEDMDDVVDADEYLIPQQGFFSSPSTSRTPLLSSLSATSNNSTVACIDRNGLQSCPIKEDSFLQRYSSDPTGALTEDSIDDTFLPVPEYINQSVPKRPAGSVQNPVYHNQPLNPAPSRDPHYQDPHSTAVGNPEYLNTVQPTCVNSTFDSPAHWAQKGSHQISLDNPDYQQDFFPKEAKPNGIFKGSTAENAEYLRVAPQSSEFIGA
The test is described as follows: WT EGFR cellular phosphorylation inhibition in A-431 (hEGF stimulated, MSD).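 Also: electrochemiluminescence read-out of EGFR Tyr1068 phosphorylation expressed as ratio to total EGFR, cells kept in medium with 1% FBS, compounds tested as a concentration series.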 Conditions: A431 cells, 4 h compound, then 100 ng/ml hEGF 10 min.

Test [6] deals with Ba/F3 EGFR NPH ins cells. The test is described as follows: Cell proliferation, Ba/F3 EGFR NPH ins (CellTiter-Glo, 72 h).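 Also: IL3-independent cells carrying constitutively phosphorylated EGFR, compound dilution series, viable cells quantified by ATP luminescence, growth relative to DMSO wells after subtracting pre-dosing (day 0) baseline.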 The following applies: Ba/F3 EGFR, 72 h, Ba/F3 EGFR NPH ins, 72 h proliferation; read-out: EGFR Exon20 NPH insertion GI50.
The test system of test [7] is Ba/F3 EGFR ASV ins cells. The test is described as follows: Cell proliferation, Ba/F3 EGFR ASV ins (CellTiter-Glo, 72 h).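 Also: IL3-independent Ba/F3 cells transduced with EGFR V769_D770insASV, cellular ATP luminescence after compound exposure, growth relative to DMSO control with the day-0 baseline reading subtracted.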 Conditions: Ba/F3 EGFR, 72 h, Ba/F3 EGFR ASV ins, 72 h proliferation; read-out: EGFR Exon20 ASV insertion GI50. A general note: Cellular ATP, detected with luciferase, serves as a proxy for viable cell number.
Test [8] has as its system NCI-H1975 EGFR L858R/T790M cells. The test is described as follows: Cell proliferation, NCI-H1975 EGFR L858R/T790M (CellTiter-Glo, 72 h).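 Also: viable cells quantified by luciferase-based ATP luminescence, proliferation expressed relative to DMSO-treated wells (100%) after subtracting a parallel plate read at the time of dosing.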 Conditions: Homo sapiens, NCI-H1975, 72 h, NCI-H1975, 72 h proliferation; read-out: EGFR L858R and T790M mutation GI50.
The subject of test [9] is Her2 exon 20 insertion YVMA transduced NIH-3T3 cell line. The test is described as follows: Cell proliferation, Her2 YVMAins NIH-3T3 (CellTiter-Glo, 72 h).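 Also: viable cells quantified by ATP luminescence, growth over a day-zero baseline plate expressed as percent of DMSO control growth, compound dilution series in 10% FBS medium.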 The following applies: Mus musculus, NIH3T3, 72 h, Her2 YVMAins cells, 72 h proliferation; read-out: Her2 Exon 20 YVMA insertion GI50.
Test [10] relates to WT EGFR cell line A-431. The test is described as follows: Cell proliferation, WT EGFR A431 (CellTiter-Glo, 72 h).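 Also: proliferation from a luminescent ATP viability signal, expressed as 100 × (treated minus time-zero plate) over (DMSO control minus time-zero plate), cells grown with 10% FBS.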 The following applies: Homo sapiens, A-431, 72 h, A431, 72 h proliferation; read-out: EGFR WT A431 GI50.
Test [11] deals with OCI-LY-10 cells. The test is described as follows: BTK (wt) cell proliferation, OCI-LY-10 (CellTiter-Glo, 72 h).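 Also: viable cells quantified via cellular ATP luminescence, proliferation given as percent of DMSO control after subtracting a duplicate plate read at time of dosing.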 The following applies: Homo sapiens, OCI-Ly10, 72 h, OCI-LY-10 cells, 72 h, CellTiter-Glo; read-out: BTK WT OCI-LY-10 GI50.
The subject of test [12] is TMD-8 cells. The test is described as follows: BTK (wt) cell proliferation, TMD-8 (CellTiter-Glo, 72 h).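 Also: viable cells quantified by ATP-based luminescence, proliferation expressed as percent of DMSO control after subtracting a time-zero baseline plate read at dosing.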 Conditions: Homo sapiens, TMD8, 72 h, TMD-8 cells, 72 h, CellTiter-Glo; read-out: BTK WT TMD-8 GI50.
Test [13] has as its system Ri-1 cells. The test is described as follows: BTK (wt) cell proliferation, Ri-1 (CellTiter-Glo, 72 h).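 Also: viable cells quantified as cellular ATP luminescence, proliferation normalized to a time-zero plate and the DMSO control, compounds tested across a dilution series.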 Conditions: Ri-1, 72 h, Ri-1 cells, 72 h, CellTiter-Glo; read-out: BTK WT Ri-1 GI50.
Test [14] has as its system DB cells. The test is described as follows: BTK (wt) cell proliferation, DB (CellTiter-Glo, 72 h).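 Also: DB cells in 384-well plates given a dilution series of compound, viable cells read by ATP luminescence, growth expressed versus DMSO control after subtracting a time-zero plate reading.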 Conditions: Homo sapiens, DB, DB cells, CellTiter-Glo, read-out: Non-BCR activated DB GI50.
Protocol: OCI-LY-10 at 3,750 cells/well, TMD-8 and Ri-1 at 2,000 cells/well, and DB at 1,250 cells/well, respectively, were sorted into 384-well plates in RPMI1640 medium with 10% FBS. After overnight incubation, all cells were incubated with compound at a series of concentrations. Meanwhile, a duplicated plate of each cell line was prepared for measuring G0 value. The dosed plates were further incubated for 72 hours and the number of viable cells was measured by CellTiter-Glo® Luminescent Cell Viability Assay (Promega), a luminescent method for determining the number of viable cells through measurement of cellular ATP concentration using Envision plate reader (PerkinElmer). The percentage of proliferation was calculated as: % Proliferation = 100 × (G3 value of sample well - G0 value)/(G3 value of DMSO control - G0 value).

T2 sequence (P00533 with tags, fused parts or gaps INS769ASV): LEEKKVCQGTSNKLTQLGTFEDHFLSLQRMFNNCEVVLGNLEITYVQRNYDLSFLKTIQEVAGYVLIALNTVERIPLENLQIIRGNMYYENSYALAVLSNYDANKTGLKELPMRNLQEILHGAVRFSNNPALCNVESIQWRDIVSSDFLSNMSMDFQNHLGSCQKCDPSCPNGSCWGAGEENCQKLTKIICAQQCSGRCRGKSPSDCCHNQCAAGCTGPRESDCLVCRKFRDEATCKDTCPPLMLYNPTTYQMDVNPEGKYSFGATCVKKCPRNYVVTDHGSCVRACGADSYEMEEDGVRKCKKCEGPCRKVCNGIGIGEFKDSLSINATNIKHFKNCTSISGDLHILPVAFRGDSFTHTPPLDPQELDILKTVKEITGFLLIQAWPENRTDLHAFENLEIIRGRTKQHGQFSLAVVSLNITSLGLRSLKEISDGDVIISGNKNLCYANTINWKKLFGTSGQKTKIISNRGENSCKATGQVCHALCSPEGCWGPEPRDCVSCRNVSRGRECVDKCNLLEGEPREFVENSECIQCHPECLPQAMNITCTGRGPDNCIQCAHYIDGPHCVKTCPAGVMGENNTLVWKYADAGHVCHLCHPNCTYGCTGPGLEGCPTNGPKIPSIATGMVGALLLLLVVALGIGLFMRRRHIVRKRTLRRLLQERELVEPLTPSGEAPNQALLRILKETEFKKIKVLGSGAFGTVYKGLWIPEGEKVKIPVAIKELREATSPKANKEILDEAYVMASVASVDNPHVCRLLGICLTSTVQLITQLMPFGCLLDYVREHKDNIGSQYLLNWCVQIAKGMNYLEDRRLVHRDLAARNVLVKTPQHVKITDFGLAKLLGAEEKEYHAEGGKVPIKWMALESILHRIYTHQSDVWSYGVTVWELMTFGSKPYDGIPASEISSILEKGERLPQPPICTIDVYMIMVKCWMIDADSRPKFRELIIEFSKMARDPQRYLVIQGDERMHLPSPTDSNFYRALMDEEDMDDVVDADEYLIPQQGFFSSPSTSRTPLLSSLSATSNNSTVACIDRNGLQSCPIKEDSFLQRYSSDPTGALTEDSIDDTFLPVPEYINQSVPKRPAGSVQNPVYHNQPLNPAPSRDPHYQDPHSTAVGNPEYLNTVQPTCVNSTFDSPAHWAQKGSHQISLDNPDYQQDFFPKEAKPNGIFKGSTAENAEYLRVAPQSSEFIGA
T1 sequence (P00533 with tags, fused parts or gaps INS773NPH): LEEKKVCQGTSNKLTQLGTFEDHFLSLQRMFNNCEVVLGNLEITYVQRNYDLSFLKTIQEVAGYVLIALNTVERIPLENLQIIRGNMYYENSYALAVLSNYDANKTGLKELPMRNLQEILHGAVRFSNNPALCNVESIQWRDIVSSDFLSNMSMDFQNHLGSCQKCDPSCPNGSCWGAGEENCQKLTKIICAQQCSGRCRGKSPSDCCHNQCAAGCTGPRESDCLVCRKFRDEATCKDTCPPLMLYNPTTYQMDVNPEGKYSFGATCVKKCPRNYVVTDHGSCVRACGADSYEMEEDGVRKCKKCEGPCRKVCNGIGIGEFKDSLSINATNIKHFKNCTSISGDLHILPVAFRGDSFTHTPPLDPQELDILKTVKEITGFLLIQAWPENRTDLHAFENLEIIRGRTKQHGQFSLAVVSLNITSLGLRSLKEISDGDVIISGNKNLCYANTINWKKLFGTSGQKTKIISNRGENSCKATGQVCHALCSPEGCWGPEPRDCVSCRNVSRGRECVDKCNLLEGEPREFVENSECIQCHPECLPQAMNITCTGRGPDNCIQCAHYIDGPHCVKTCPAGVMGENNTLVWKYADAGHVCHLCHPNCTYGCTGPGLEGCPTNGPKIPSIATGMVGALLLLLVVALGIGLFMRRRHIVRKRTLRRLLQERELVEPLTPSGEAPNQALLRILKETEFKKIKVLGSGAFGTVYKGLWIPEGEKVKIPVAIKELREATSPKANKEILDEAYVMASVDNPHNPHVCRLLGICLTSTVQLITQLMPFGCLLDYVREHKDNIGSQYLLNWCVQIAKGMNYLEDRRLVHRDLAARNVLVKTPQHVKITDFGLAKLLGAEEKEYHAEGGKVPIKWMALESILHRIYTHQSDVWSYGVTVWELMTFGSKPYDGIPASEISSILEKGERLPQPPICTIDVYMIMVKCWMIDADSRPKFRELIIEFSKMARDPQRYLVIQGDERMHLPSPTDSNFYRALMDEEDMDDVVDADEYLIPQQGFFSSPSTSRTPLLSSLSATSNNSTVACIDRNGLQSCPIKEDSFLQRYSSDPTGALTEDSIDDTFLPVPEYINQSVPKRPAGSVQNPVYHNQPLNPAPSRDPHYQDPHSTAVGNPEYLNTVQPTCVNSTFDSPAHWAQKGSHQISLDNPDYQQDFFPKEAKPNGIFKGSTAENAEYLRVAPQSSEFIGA

`C=CC(=O)Nc1cc(Nc2ncnc(Nc3ccccc3C3(O)CC3)n2)c(OC)cc1N(C)CCN(C)C` [Compound 2, N-(2-((2-(dimethylamino)ethyl)(methyl)amino)-5-(4-(2-(1-hydroxycyclopropyl)phenylamino)-1,3,5-triazin-2-ylamino)-4-methoxyphenyl)acrylamide]: the concentration for half-maximal inhibition (IC50) in test [1] was 19.7 nM; in test [2] it was 13.4 nM; in [3] it was 0.5 nM; in test [4], 4.6 nM; in [5], 21.3 nM. The GI50 in [6] is 56 nM; in test [7] it was 42.2 nM; in test [8], 13.9 nM; in test [9], 45.2 nM; in [10], 26.6 nM; in [11] it was 134 nM. For the same compound, the 50% growth inhibitory concentration (GI50) in [12] was 130 nM; in test [13], 86.6 nM; in test [14] it was above 3000 nM.

Turning to `C=CC(=O)Nc1cc(Nc2ncnc(Nc3cc(Cl)c(F)cc3C(C)(C)O)n2)c(OC)cc1N(C)C[C@@H]1CCCN1C` [Compound 44, (S)-N-(5-(4-(5-chloro-4-fluoro-2-(2-hydroxypropan-2-yl)phenylamino)-1,3,5-triazin-2-ylamino)-4-methoxy-2-(methyl((1-methylpyrrolidin-2-yl)methyl)amino)phenyl) acrylamide], the IC50 in test [1] amounted to 6.8 nM; in test [2] it was 12.5 nM; in test [3], 0.5 nM; in [4], 8 nM; in test [5] it was 30.9 nM. Moreover, the concentration for 50% growth inhibition (GI50) was 39 nM in test [6]; 29.8 nM in test [7]; 3.6 nM in [8]; 74.6 nM in [9]; 14.8 nM in test [10]; 6.75 nM in [11]. Besides, the GI50 in test [12] was 4.32 nM; in test [13], 10.4 nM; in [14], above 3000 nM.

On to `C=CC(=O)Nc1cc(Nc2ncnc(Nc3cc(F)c(C4CC4)cc3C(C)(C)O)n2)c(OC)cc1N1CCC[C@@H]1CN(C)C` [Compound 46, (R)-N-(5-(4-(4-cyclopropyl-5-fluoro-2-(2-hydroxypropan-2-yl)phenylamino)-1,3,5-triazin-2-ylamino)-2-(2-((dimethylamino)methyl)pyrrolidin-1-yl)-4-methoxyphenyl)acrylamide], for which the IC50 in test [1] was determined as 2.5 nM; in test [2], 6.4 nM; in [3] it was 0.2 nM; in test [4], 1.7 nM; in test [5], 8.7 nM. In addition, the GI50 in [6] amounted to 18.8 nM; in test [7], 8.2 nM; in test [8] it was 1.4 nM; in test [9] it was 16.8 nM; in [10], 4.5 nM; in test [11] it was 2.97 nM. For the same compound, the GI50 in test [12] is 0.9 nM; in test [13], 6.49 nM; in test [14], 2580 nM.

As for `C=CC(=O)Nc1cc(Nc2ncnc(Nc3cc(Cl)c(F)cc3C(C)(C)O)n2)c(OC)cc1N(C)CCN1CCCC1` [Compound 29, N-(5-(4-(5-chloro-4-fluoro-2-(2-hydroxypropan-2-yl)phenylamino)-1,3,5-triazin-2-ylamino)-4-methoxy-2-(methyl(2-(pyrrolidin-1-yl)ethyl)amino)phenyl)acrylamide], the 50% inhibitory concentration (IC50) turned out to be 22.9 nM in test [1]; 17.4 nM in test [2]; 1 nM in [3]; 7.6 nM in test [4]; 45.3 nM in test [5]. Moreover, the GI50 came out at 52.7 nM in test [6]; 45.2 nM in test [7]; 6.9 nM in [8]; 68.3 nM in test [9]; 20.1 nM in test [10]; 35.5 nM in test [11]. The figures for the GI50 in [12], in test [13] and in [14] were 11.3 nM, 44.8 nM and above 3000 nM, respectively.

Turning to `C=CC(=O)Nc1cc(Nc2nccc(Nc3cc(Cl)c(F)cc3C(C)(C)O)n2)c(OC)cc1N1CC[C@H](N(C)C)C1` [Compound 87, (S)-N-(5-(4-(5-chloro-4-fluoro-2-(2-hydroxypropan-2-yl)phenylamino)pyrimidin-2-ylamino)-2-(3-(dimethylamino)pyrrolidin-1-yl)-4-methoxyphenyl)a crylamide], the half-inhibitory concentration (IC50) turned out to be 51.2 nM in [1]; 51.9 nM in test [2]; 1 nM in test [3]; 21.2 nM in test [4]; 362 nM in test [5]. In addition, the GI50 in [6] is 140 nM; in [7] it was 156 nM; in test [8], 24.4 nM; in test [9], 827 nM; in test [10] it was 84.8 nM; in test [11], 22.3 nM. Also, the GI50 in test [12] amounted to 13.7 nM; in test [13], 48 nM; in test [14] it was 1210 nM.

Regarding `C=CC(=O)Nc1cc(Nc2ncnc(Nc3cc(F)c(Cl)cc3C(C)(C)O)n2)c(OC)cc1N1CCC[C@@H]1CN(C)C` [Compound 43, (R)-N-(5-(4-(4-chloro-5-fluoro-2-(2-hydroxypropan-2-yl)phenylamino)-1,3,5-triazin-2-ylamino)-2-(2-((dimethylamino)methyl)pyrrolidin-1-yl)-4-methoxyphenyl)acrylamid], the half-maximal inhibitory concentration (IC50) was 3.9 nM in test [1]; 5.9 nM in test [2]; 0.3 nM in [3]; 2.9 nM in test [4]; 8.1 nM in test [5]. The GI50 was 17.4 nM in [6]; 9.3 nM in test [7]; 1.2 nM in [8]; 27.6 nM in [9]; 4.3 nM in test [10]; 7.6 nM in test [11]. Besides, the GI50 in test [12] is 13.6 nM; in test [13], 28.5 nM; in [14], above 3000 nM.

With `C=CC(=O)Nc1cc(Nc2ncnc(Nc3cc(C4CC4)c(F)cc3C(C)(C)O)n2)c(OC)cc1N(C)CCN(C)C` [Compound 75, N-(5-(4-(5-cyclopropyl-4-fluoro-2-(2-hydroxypropan-2-yl)phenylamino)-1,3,5-triazin-2-ylamino)-2-((2-(dimethylamino)ethyl)(methyl)amino)-4-methoxyphenyl)acrylamide], the 50% inhibitory concentration (IC50) in test [1] turned out to be 27.9 nM; in [2] it was 18.5 nM; in test [3], 3.7 nM; in test [4] it was 10.8 nM; in test [5], 42.6 nM. The GI50 in test [6] came to 73 nM; in [7], 90.6 nM; in test [8], 19.2 nM; in test [9], 29.9 nM; in test [10], 11.6 nM; in test [11], 45.5 nM. For the same compound, the GI50 was 133 nM in test [12], 250 nM in test [13] and above 3000 nM in test [14].

For the compound `C=CC(=O)Nc1cc(Nc2nccc(Nc3cc(Cl)c(F)cc3C(C)(O)C(F)(F)F)n2)c(OC)cc1N1CC[C@@H](N(C)C)C1` (stereo partly drawn) [Compound 92, N-(5-(4-(5-chloro-4-fluoro-2-(1,1,1-trifluoro-2-hydroxypropan-2-yl)phenylamino)pyrimidin-2-ylamino)-2-((R)-3-(dimethylamino)pyrrolidin-1-yl)-4-methoxyphenyl) acrylamide], the IC50 worked out at 79.9 nM in [1]; 71.2 nM in test [2]; 1.7 nM in test [3]; 26 nM in test [4]; 765 nM in test [5]. The 50% growth inhibitory concentration (GI50) in test [6] was determined as 84.7 nM; in test [7] it was 92.1 nM; in test [8], 4.9 nM; in [9], 212 nM; in [10], 40.6 nM; in test [11] it was 228 nM. Moreover, the GI50 in test [12] is 63.8 nM; in test [13], 146 nM; in test [14], 1200 nM.
